We go through five molecules from publication PMC5761851, “Application of a phenotypic drug discovery strategy to identify biological and chemical starting points for inhibition of TSLP production in lung epithelial cells” (PLoS ONE, 2018).

Holding throughout (test): kinase selectivity panel
Common to all, as to assay type: biochemical

One assay has as its target T1, Tie2 (Homo sapiens, UniProt Q02763).
T1 construct: purchased Eurofins Pharma Discovery Services (KinaseProfiler; Cerep BioPrint panel)
Conditions: for remaining activity at 10 µM: read-out: percentage of control activity (POC), Tie2. In short, it runs like this:
(§1)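 Single-point screen: 10 μM, duplicate, 125-kinase panel; follow-up IC50 from 9-point titration in duplicate for chosen hits.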

A further assay addresses T2, MAPK1 (Homo sapiens, UniProt P27361).
T2 construct: purchased Eurofins Pharma Discovery Services (KinaseProfiler; Cerep BioPrint panel)
Conditions: read-out: percentage of control activity (POC), MAPK1. In short, it runs like this:
as §1

In the next assay the target is T3, TrkA (Homo sapiens, UniProt P04629).
T3 construct: Eurofins Pharma Discovery Services (contract assay service)
Conditions: for remaining activity at 10 µM: read-out: percentage of control activity (POC), TrkA. Put shortly:
as §1

The next assay concerns the target T4, cSRC (Homo sapiens, UniProt P12931).
T4 construct: purchased Eurofins Pharma Discovery Services (KinaseProfiler; Cerep BioPrint panel)
Conditions: read-out: percentage of control activity (POC), cSRC. Put shortly:
as §1

In another assay the target is T5, CDK7/cyclinH/MAT1 (Homo sapiens, UniProt P50613).
T5 construct: purchased Eurofins Pharma Discovery Services (KinaseProfiler; Cerep BioPrint panel)
Conditions: read-out: percentage of control activity (POC), CDK7/cyclinH/MAT1. Put shortly: as §1

The next assay deals with T6, Itk (Homo sapiens, UniProt Q08881).
T6 construct: purchased Eurofins Pharma Discovery Services (KinaseProfiler; Cerep BioPrint panel)
T6 sequence (Q08881 1-620): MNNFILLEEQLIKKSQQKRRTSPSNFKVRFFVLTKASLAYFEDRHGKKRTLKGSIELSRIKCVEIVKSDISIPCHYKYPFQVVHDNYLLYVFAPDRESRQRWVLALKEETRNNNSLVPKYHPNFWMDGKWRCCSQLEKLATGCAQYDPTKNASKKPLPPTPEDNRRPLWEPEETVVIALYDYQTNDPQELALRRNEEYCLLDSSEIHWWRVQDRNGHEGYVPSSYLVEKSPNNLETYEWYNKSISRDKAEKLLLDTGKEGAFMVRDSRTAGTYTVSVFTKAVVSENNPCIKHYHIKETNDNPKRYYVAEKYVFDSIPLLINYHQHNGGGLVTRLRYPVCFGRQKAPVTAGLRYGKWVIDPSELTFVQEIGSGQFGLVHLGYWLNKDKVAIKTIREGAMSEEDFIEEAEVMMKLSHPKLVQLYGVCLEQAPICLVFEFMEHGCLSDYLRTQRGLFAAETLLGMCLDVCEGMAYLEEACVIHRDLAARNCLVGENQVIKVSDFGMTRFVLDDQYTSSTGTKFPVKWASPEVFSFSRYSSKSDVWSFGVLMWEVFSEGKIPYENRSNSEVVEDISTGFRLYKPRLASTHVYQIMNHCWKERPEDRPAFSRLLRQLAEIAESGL
Conditions: read-out: percentage of control activity (POC), Itk. Put shortly: as §1

The target in a further assay is T7, Plk3 (Homo sapiens, UniProt Q9H4B4).
T7 construct: purchased Eurofins Pharma Discovery Services (KinaseProfiler; Cerep BioPrint panel)
The note with it: read-out: percentage of control activity (POC), Plk3. Put shortly:
as §1

The target of a further assay is T8, JNK1α1 (Homo sapiens, UniProt P45983).
T8 construct: purchased Eurofins Pharma Discovery Services (KinaseProfiler; Cerep BioPrint panel)
Conditions: read-out: percentage of control activity (POC), JNK1α1. Put shortly: as §1

The target of another assay is T9, CHK1 (Homo sapiens, UniProt O14757).
T9 construct: purchased Eurofins Pharma Discovery Services (KinaseProfiler; Cerep BioPrint panel)
T9 sequence (O14757 1-476): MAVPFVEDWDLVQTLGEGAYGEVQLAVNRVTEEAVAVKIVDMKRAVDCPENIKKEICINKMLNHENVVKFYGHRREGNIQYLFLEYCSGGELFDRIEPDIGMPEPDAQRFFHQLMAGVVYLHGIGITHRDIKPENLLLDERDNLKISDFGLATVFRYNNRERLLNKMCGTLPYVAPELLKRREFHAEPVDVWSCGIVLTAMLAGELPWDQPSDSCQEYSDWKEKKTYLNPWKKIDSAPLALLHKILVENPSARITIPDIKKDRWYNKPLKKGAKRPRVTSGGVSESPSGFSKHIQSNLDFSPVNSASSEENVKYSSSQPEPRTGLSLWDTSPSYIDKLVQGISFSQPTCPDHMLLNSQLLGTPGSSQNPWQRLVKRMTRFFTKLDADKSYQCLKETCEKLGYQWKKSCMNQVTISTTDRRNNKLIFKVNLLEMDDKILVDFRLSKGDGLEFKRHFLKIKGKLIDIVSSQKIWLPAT
The note with it: read-out: percentage of control activity (POC), CHK1. Put shortly: as §1

In another assay the target is T10, CK1δ (Homo sapiens, UniProt P48730).
T10 construct: purchased Eurofins Pharma Discovery Services (KinaseProfiler; Cerep BioPrint panel)
The note with it: read-out: percentage of control activity (POC), CK1δ. In short, it runs like this:
as §1

A further assay concerns the target T11, PKCδ (Homo sapiens, UniProt Q05655).
T11 construct: purchased Eurofins Pharma Discovery Services (KinaseProfiler; Cerep BioPrint panel)
The note with it: read-out: percentage of control activity (POC), PKCδ. Put shortly: as §1

The target in a further assay is T12, CDK2/cyclinA (Homo sapiens, UniProt P24941).
T12 construct: purchased Eurofins Pharma Discovery Services (KinaseProfiler; Cerep BioPrint panel)
The note with it: read-out: percentage of control activity (POC), CDK2/cyclinA. Put shortly:
as §1

Another assay deals with T13, PKBα (Homo sapiens, UniProt P31749).
T13 construct: purchased Eurofins Pharma Discovery Services (KinaseProfiler; Cerep BioPrint panel)
The note with it: read-out: percentage of control activity (POC), PKBα. In short, it runs like this: as §1

The next assay has as its target T14, MST1 (Homo sapiens, UniProt Q13043).
T14 construct: purchased Eurofins Pharma Discovery Services (KinaseProfiler; Cerep BioPrint panel)
T14 sequence (Q13043 1-487): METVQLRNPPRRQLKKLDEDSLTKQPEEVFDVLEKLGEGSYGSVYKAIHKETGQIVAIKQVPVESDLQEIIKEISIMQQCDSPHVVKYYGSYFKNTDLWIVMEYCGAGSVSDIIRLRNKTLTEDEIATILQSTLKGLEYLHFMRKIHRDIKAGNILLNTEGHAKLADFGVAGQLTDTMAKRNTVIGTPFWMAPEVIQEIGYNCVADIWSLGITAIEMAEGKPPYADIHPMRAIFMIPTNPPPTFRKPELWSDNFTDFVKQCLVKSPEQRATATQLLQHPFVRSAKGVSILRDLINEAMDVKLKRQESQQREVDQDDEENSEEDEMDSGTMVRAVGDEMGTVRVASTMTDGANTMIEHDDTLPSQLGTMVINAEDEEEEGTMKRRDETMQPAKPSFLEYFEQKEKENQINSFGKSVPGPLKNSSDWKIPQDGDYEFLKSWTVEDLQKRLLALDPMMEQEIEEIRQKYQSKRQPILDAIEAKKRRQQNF
Conditions: read-out: percentage of control activity (POC), MST1. Put shortly:
as §1

For the next assay, the target named is T15, MLK1 (Homo sapiens, UniProt P80192).
T15 construct: purchased Eurofins Pharma Discovery Services (KinaseProfiler; Cerep BioPrint panel)
Conditions: read-out: percentage of control activity (POC), MLK1. In short, it runs like this:
as §1

T13 sequence (P31749 whole entry): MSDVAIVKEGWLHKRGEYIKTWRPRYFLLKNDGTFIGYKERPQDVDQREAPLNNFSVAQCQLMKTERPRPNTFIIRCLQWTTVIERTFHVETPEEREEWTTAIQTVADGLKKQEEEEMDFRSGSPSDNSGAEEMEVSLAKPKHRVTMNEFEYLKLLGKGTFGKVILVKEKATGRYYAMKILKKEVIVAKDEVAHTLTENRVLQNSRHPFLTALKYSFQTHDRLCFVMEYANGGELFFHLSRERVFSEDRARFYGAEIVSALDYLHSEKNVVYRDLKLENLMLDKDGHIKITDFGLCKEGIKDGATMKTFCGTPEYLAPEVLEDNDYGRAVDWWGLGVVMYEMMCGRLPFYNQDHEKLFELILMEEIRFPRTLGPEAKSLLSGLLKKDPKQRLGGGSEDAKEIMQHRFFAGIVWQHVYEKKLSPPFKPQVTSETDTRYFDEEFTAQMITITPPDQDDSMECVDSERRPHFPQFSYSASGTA
T11 sequence (Q05655 whole entry): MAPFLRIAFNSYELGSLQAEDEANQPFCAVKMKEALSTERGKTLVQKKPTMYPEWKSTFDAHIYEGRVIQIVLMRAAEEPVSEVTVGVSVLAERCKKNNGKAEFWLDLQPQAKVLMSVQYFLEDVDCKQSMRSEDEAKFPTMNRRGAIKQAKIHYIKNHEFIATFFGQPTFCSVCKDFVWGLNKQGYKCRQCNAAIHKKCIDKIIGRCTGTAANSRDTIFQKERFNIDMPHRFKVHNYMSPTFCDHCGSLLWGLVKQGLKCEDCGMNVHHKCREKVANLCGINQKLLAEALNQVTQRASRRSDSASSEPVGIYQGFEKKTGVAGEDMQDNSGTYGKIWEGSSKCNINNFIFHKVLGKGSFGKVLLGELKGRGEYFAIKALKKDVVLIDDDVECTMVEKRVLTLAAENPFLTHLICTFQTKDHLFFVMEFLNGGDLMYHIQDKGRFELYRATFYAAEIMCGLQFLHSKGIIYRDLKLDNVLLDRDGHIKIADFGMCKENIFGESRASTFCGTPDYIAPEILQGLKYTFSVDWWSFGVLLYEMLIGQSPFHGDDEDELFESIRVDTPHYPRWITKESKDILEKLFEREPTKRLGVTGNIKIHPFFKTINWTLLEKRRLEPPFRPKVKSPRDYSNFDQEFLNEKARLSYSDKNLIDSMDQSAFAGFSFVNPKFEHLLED
T3 sequence (P04629 33-796, species assumed): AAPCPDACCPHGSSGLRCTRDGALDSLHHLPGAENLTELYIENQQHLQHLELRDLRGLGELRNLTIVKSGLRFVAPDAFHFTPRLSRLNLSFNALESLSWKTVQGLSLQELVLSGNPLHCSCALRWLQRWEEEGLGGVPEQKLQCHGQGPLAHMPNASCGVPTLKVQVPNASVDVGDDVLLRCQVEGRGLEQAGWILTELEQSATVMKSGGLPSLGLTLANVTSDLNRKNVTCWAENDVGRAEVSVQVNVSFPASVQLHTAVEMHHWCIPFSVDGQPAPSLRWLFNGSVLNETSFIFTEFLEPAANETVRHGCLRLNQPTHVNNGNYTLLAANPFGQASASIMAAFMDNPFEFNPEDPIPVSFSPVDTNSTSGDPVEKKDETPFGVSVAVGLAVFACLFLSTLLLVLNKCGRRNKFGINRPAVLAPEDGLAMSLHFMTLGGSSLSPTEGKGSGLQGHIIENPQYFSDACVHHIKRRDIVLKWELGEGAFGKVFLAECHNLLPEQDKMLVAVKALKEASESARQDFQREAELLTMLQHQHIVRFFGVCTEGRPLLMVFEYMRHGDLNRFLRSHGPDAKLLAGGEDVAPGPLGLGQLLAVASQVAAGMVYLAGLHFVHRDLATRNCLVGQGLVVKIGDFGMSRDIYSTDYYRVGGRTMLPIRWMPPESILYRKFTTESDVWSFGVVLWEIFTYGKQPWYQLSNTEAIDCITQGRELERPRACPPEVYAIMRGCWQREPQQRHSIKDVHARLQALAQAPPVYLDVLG
T4 sequence (P12931 whole entry): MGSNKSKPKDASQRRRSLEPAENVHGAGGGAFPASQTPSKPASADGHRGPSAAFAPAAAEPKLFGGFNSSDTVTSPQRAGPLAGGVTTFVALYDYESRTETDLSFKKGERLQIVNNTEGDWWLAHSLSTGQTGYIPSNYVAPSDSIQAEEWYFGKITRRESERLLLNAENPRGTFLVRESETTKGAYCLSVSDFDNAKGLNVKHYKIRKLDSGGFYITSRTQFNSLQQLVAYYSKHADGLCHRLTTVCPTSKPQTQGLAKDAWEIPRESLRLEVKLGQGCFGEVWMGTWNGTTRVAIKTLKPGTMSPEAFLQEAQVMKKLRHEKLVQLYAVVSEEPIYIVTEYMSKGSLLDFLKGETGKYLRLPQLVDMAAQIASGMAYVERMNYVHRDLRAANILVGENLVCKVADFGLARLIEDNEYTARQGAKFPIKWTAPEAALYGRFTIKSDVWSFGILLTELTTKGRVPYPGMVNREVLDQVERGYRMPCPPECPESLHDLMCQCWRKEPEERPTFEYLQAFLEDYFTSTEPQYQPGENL
T8 sequence (P45983 1-384 isoform P45983-2): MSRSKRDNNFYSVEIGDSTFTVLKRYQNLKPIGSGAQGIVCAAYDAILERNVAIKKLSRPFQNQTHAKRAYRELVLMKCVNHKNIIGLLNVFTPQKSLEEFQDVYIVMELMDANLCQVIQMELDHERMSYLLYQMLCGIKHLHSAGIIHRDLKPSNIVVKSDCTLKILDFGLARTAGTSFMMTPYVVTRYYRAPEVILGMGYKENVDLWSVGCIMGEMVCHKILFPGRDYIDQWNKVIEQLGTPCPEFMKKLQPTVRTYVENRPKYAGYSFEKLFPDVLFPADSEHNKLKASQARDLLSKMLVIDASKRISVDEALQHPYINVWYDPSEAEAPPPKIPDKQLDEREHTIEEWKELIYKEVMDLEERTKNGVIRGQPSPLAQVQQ
T15 sequence (P80192 whole entry): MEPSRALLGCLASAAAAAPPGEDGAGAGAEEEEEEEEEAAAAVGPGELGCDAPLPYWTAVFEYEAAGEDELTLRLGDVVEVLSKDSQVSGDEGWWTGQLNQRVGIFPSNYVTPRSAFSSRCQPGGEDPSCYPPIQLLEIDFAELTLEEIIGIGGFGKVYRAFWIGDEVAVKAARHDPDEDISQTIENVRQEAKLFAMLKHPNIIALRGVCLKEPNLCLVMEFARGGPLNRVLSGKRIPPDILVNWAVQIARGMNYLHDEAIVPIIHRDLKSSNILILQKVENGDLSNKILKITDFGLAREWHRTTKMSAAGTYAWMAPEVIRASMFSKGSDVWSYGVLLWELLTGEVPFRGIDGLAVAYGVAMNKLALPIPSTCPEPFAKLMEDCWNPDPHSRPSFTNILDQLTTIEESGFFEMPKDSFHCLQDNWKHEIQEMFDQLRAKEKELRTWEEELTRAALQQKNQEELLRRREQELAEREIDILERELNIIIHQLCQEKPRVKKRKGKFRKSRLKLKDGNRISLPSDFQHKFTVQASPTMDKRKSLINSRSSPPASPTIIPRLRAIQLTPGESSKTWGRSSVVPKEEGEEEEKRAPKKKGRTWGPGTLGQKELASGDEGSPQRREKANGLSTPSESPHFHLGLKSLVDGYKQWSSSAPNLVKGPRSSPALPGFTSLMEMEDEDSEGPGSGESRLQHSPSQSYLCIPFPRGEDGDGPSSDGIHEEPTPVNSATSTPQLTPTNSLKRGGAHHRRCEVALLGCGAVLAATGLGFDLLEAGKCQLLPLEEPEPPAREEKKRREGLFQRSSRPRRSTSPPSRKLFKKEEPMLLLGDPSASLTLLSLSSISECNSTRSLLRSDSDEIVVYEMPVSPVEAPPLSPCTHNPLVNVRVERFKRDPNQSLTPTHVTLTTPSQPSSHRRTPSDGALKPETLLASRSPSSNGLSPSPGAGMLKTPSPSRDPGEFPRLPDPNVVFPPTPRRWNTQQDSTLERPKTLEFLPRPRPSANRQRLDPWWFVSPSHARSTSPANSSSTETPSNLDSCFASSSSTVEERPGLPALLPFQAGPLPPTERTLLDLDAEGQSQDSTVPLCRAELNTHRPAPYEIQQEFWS
T10 sequence (P48730 whole entry): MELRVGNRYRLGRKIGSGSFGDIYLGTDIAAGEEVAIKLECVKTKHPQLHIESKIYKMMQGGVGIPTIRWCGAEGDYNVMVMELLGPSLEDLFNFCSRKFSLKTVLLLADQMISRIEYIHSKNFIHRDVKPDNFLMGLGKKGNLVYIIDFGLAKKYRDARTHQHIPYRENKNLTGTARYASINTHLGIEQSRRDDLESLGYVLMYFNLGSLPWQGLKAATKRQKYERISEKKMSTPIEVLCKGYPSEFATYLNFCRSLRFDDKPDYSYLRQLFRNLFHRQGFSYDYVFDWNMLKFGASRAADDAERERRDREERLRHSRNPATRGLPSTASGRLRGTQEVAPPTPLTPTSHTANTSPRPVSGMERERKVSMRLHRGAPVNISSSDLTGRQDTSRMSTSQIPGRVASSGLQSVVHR
T2 sequence (P27361 whole entry): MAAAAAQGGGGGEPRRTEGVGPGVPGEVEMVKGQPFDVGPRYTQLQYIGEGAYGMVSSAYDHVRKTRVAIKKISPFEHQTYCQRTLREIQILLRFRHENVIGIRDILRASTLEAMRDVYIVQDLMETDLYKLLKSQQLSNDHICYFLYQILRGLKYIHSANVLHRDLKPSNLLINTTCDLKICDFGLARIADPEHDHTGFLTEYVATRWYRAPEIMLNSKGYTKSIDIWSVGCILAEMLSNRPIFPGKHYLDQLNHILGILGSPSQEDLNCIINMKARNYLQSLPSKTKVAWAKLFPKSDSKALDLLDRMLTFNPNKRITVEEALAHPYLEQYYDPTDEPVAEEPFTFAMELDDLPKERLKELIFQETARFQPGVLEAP

In the case of `CC(C)(C)N1CCC(c2cc(-c3ccc(F)cc3Cl)c3cc[n+]([O-])c(-c4c(Cl)cccc4Cl)c3n2)CC1` [compound 2], the remaining activity at 10 µM on Tie2 stood at 79%; at MAPK1, 105%; on TrkA (10 μM), 91%; at cSRC it was 107%; on CDK7/cyclinH/MAT1, 115%; on Itk it was 110%. In addition, the remaining activity at 10 µM came out at 111% at Plk3; 97% at JNK1α1; 103% on CHK1; 110% at CK1δ; 109% on PKCδ; 105% at CDK2/cyclinA. Moreover, the remaining activity at 10 µM on PKBα came to 95%; at MST1, 103%; at MLK1, 99%.

Turning to `Cc1ccc(C(=O)NCC2CC2)cc1-c1ccc2c(c1)NC(=O)C21CCCC1` [compound 3], the remaining activity at 10 µM on Tie2 was 96%; at MAPK1 it was 88%; on TrkA (10 μM), 67%; at cSRC, 103%; on CDK7/cyclinH/MAT1 it was 104%; at Itk it was 103%. Also, the remaining activity at 10 µM turned out to be 101% at Plk3; 96% on JNK1α1; 100% at CHK1; 100% at CK1δ; 104% at PKCδ; 101% at CDK2/cyclinA. In addition, the remaining activity at 10 µM on PKBα stood at 91%; at MST1, 88%; on MLK1, 97%.

As to `Cn1cc(-c2cccc(-c3nc(C(=O)NC4C5CC6CC4CC(O)(C6)C5)c(N)nc3N)c2)cn1` (stereo not drawn) [compound 4], the remaining activity at 10 µM was 76% at Tie2; 96% at MAPK1; 14% on TrkA (10 μM); 69% at cSRC; 95% on CDK7/cyclinH/MAT1; 109% on Itk. Further, the remaining activity at 10 µM at Plk3 turned out to be 95%; on JNK1α1, 92%; at CHK1 it was 94%; on CK1δ, 50%; on PKCδ it was 97%; at CDK2/cyclinA, 91%. Further, the remaining activity at 10 µM on PKBα was determined as 96%; on MST1, 58%; on MLK1, 79%. The inhibition at 10 µM against TrkA (10 μM) turned out to be 86%. The IC50 on TrkA (biochemical dose response, duplicate, read-out: Inhibition of indicated activity (IC50, μM): TrkA) is 3.23 µM.

For `CS(=O)(=O)N1CCN(c2ccc(Nc3ncc(C(N)=O)c(NC4CC4)n3)cc2)CC1` [compound 5], the remaining activity at 10 µM at Tie2 is 42%; on MAPK1, 34%; on TrkA (10 μM) it was 1%; on cSRC it was 16%; at CDK7/cyclinH/MAT1, 71%; at Itk it was 3%. The remaining activity at 10 µM on Plk3 was found to be 63%; on JNK1α1 it was 3%; at CHK1, 1%; on CK1δ, 23%; at PKCδ it was 8%; on CDK2/cyclinA it was 78%. In addition, the remaining activity at 10 µM on PKBα was 86%; on MST1 it was -1%; on MLK1 it was -1%.

On to `COc1c(NC(=O)c2ccc(C)c(-c3nnc4c(NCC(C)(C)C)nccn34)c2)cc(C(C)(C)C)cc1NS(C)(=O)=O` [compound 7, reference compound], for which testing at 10 µM on Tie2 gave an inhibition of 83%. The remaining activity at 10 µM on Tie2 is 27%; at MAPK1, 85%; on TrkA (10 μM), 68%; on cSRC, 103%; on CDK7/cyclinH/MAT1, 101%; at Itk, 114%. The remaining activity at 10 µM at Plk3 came to 104%; at JNK1α1 it was 96%; on CHK1, 103%; on CK1δ it was 111%; on PKCδ it was 107%; at CDK2/cyclinA, 105%. Also, the values for the remaining activity at 10 µM on PKBα, at MST1 and at MLK1 were 99%, 101% and 104%, respectively.

What is called inhibition is the percentage by which the read-out fell short of the control. A high value points to strong suppression. A word on the IC50: it is the concentration needed to halve the response being measured.
